Our source for the IC50 values is patent publication US11260049B2, “TRPV4 antagonists” (GlaxoSmithKline Intellectual Property (No. 2) Limited, priority 2016, dated 2022).

Each structure is given as a SMILES string.

What is called IC50 is the point on the concentration scale where inhibition reaches its midpoint.

The target of the experiment is human TRPV4 (Homo sapiens (Human), UniProt Q9HBA0). The experiment is described as follows: FLIPR assay for hTRPV4 expressed in BHK cells. Particulars: inhibition of Agonist Compound (EC80)-induced calcium signal; BHK/AC9 cells expressing human TRPV4; read-out: IC50. It is filed as cell-based. Put shortly: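 BHK/AC9 cells transduced with BacMam human TRPV4 (MOI 78), 15,000 cells/well, cultured 24 h at 37 °C. Loaded with 2 μM Fluo-4 AM and 500 μM Brilliant Black in HBSS for 1–1.5 h at room temperature in the dark. Intracellular calcium influx monitored by fluorescence.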
human TRPV4, sequence (Q9HBA0 whole entry): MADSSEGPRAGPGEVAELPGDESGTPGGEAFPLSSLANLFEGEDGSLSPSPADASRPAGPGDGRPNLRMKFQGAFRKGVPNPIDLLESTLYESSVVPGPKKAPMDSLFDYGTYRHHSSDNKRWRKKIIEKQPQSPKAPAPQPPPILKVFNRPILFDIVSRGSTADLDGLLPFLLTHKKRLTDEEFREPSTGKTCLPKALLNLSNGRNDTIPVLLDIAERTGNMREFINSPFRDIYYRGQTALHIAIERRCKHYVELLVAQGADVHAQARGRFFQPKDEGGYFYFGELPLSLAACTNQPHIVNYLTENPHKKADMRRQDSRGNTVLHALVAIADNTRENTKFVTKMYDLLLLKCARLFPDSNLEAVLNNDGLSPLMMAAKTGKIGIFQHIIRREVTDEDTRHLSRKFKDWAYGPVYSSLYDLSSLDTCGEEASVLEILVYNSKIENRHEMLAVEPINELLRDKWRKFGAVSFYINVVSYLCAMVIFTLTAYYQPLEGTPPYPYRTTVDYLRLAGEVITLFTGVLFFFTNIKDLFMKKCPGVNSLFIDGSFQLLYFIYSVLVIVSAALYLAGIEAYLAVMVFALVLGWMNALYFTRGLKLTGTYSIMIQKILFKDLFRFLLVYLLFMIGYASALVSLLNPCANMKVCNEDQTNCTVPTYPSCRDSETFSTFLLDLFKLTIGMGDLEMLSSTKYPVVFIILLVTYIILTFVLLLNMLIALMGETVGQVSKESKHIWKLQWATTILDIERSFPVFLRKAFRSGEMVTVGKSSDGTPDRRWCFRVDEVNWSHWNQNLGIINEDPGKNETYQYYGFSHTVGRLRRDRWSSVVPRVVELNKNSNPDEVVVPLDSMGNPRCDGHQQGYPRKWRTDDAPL

On to `CCc1ccc(S(=O)(=O)[C@H]2CN(S(=O)(=O)c3ccc(C#N)cc3Cl)C[C@@]2(O)CO)cc1` [Example 104, 3-chloro-4-(((3R,4S)-4-((4-ethylphenyl)sulfonyl)-3-hydroxy-3-(hydroxymethyl)pyrrolidin-1-yl)sulfonyl)benzonitrile], for which the IC50 lay in the range of 10 to 100 nM.
With `N#Cc1cc(F)c(S(=O)(=O)[C@H]2CN(S(=O)(=O)c3ccc(Cl)cc3Cl)C[C@]2(O)CO)cc1F` [Example 79, 4-(((3S,4S)-1-((2,4-dichlorophenyl)sulfonyl)-4-hydroxy-4-(hydroxymethyl)pyrrolidin-3-yl)sulfonyl)-2,5-difluorobenzonitrile], the IC50 lay within 10 to 100 nM.
In the case of `O=S(=O)(c1ccc(Cl)cc1)[C@H]1CN(S(=O)(=O)c2ccc(C(F)F)cc2Cl)C[C@@]1(O)CO` [Example 37, (3R,4S)-1-((2-chloro-4-(difluoromethyl)phenyl)sulfonyl)-4-((4-chlorophenyl)sulfonyl)-3-(hydroxymethyl)pyrrolidin-3-ol], the half-inhibitory concentration (IC50) fell in the range of 10 to 100 nM.
